Target: Vasopressin V2 (Rattus norvegicus, UniProt Q00788)
Assay: Vasopressin V2 agonist effects in normal conscious water-loaded rats
Format: in vivo
Set-up: from tissue; host or cells: whole living Sprague-Dawley rat; the receptor is the animal's own (renal, by own knowledge)
Conditions: Sprague-Dawley (CD) rats; for Osmolality (% Increase): change in osmolality as percent of control; for Urine Volume (% decrease): vs. control
Source text: Vasopressin V2 Agonist Effects of Test Compounds in Normal Conscious Water-loaded Rats
Male or female normotensive Sprague-Dawley rats (Charles River Laboratories, Inc., Kingston, N.Y.) of 350-500 g body weight were supplied with standard rodent diet (Purina Rodent Lab. Chow 5001) and water ad libitum. On the day of test, rats were placed individually into metabolic cages equipped with devices to separate the feces from the urine and containers for collection of urine. […] The vehicle used was 20% dimethylsulfoxide (DMSO) in 2.5% preboiled corn starch. Thirty minutes after dosing the test compound, rats were gavaged with water at 30 ml/kg into the stomach using a feeding needle. During the test, rats were not provided with water or food. Urine was collected for four hours after dosing of the test compound. At the end of four hours, urine volume was measured. Urinary osmolality was determined using a Fiske One-Ten Osmometer (Fiske Associates, Norwood, Mass., 02062) or an Advanced CRYOMATIC Osmometer, Model 3C.2 (Advanced Instruments, Norwood, Mass.). Determinations of Na^+, K^+ and Cl^− ion were carried out using ion specific electrodes in a Beckman SYNCHRON EL-ISE Electrolyte System analyzer. The urinary osmolality should increase proportionally. In the screening test, two rats were used for each compound. If the difference in the urine volume of the two rats was greater than 50%, a third rat was used.

[1] = 10 mg/kg oral, urine collected four hours

Vasopressin V2, sequence (Q00788 whole entry): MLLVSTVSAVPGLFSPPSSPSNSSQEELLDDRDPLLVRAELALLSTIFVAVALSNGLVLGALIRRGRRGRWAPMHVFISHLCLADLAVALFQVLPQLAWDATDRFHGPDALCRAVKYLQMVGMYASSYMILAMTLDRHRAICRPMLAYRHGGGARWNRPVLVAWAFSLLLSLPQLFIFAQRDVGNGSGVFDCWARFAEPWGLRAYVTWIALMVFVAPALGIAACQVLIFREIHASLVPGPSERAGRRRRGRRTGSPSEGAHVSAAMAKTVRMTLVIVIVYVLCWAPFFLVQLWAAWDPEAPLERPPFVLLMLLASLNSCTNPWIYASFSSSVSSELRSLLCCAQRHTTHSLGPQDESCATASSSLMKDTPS

Structure (SMILES)	Osmolality (% Increase) (1 mg/kg)	Urine Volume (% decrease) (1 mg/kg)	Osmolality (% Increase) (10 mg/kg oral)	Urine Volume (% decrease) [1]
Cc1ccn(-c2ccc(C(=O)N3Cc4cccn4Cc4ccccc43)c(C(F)(F)F)c2)n1 [Example 2, [4-(3-Methyl-pyrazol-1-yl)-2-trifluoromethyl-phenyl](5H,11H-pyrrolo[2,1-c]-[1,4]benzodiazepin-10-yl)-methanone]	306% (1 mg/kg)	80% (1 mg/kg)		
Cc1cnn(-c2ccc(C(=O)N3Cc4cccn4Cc4ccccc43)c(C(F)(F)F)c2)c1 [Example 3, [4-(4-Methyl-pyrazol-1-yl)-2-trifluoromethyl-phenyl]-(5H,11H-pyrrolo[2,1-c][1,4]benzodiazepin-10-yl)-methanone]			240%	58%
O=C(c1ccc(-n2cccn2)cc1C(F)(F)F)N1Cc2cccn2Cc2ccccc21 [Example 4, (4-Pyrazol-1-yl-2-trifluoromethyl-phenyl)-(5H,11H-pyrrolo[2,1-c][1,4]benzodiazepin-10-yl)-methanone]			225%	57%
O=C(c1ccc(-n2ccc(C3CC3)n2)cc1C(F)(F)F)N1Cc2cccn2Cc2ccccc21 [Example 5, [4-(3-Cyclopropyl-pyrazol-1-yl)-2-trifluoromethy-phenyl]-(5H,11H-pyrrolo[2,1-c][1,4]benzodiazepin-10-yl)-methanone]			231%	56%
Cc1cn(-c2ccc(C(=O)N3Cc4cccn4Cc4ccccc43)c(C(F)(F)F)c2)cn1 [Example 6, [4-(4-Methyl-imidazol-1-yl)-2-trifluoromethyl-phenyl]-(5H,11H-pyrrolo[2,1-c][1,4]benzodiazepin-10-yl)-methanone]			270%	58%
O=C(c1ccc(-n2cncn2)cc1C(F)(F)F)N1Cc2cccn2Cc2ccccc21 [Example 7, (5H,11H-Pyrrolo[2,1-c][1,4]benzodiazepin-10-yl)-(4-[1,2,4]triazol-1-yl-2-trifluoromethylphenyl)-methanone]			137%	13%
Cc1ccnn1-c1ccc(C(=O)N2Cc3cccn3Cc3ccccc32)c(Cl)c1 [Example 9B]			168%	21%
Cc1cnn(-c2ccc(C(=O)N3Cc4cccn4Cc4ccccc43)c(Cl)c2)c1 [Example 11]			285%	70%
Cc1cn(-c2ccc(C(=O)N3Cc4cccn4Cc4ccccc43)c(Cl)c2)cn1 [Example 12, [2-Chloro-4-(4-methyl-imidazol-1-yl)-phenyl]-(5H,11H-pyrrolo[2,1-c][1,4]benzodiazepin-10-yl)-methanone]			330%	69%
O=C(c1ccc(-n2ccc(C(F)(F)F)n2)cc1Cl)N1Cc2cccn2Cc2ccccc21 [Example 13, [2-Chloro-4-(3-trifluoromethyl-pyrazol-1-yl)-phenyl]-(5H,11H-pyrrolo[2,1-c][1,4]benzodiazepin-10-yl)-methanone]			229%	50%
O=C(c1ccc(-n2cncn2)cc1Cl)N1Cc2cccn2Cc2ccccc21 [Example 14, [2-Chloro-4-(1,2,4-triazol-1-yl)-phenyl]-(5H,11H-pyrrolo[2,1-c][1,4]benzodiazepin-10-yl)-methanone]			406%	86%
O=C(c1ccc(-n2cccc2)cc1Cl)N1Cc2cccn2Cc2ccccc21 [Example 15, (2-Chloro-4-pyrrol-1-yl-phenyl)-(5H,11H-pyrrolo[2,1-c][1,4]benzodiazepin-10-yl)-methanone]			38%	47%
O=C(c1ccc(-n2cccn2)cc1Cl)N1Cc2cccn2Cc2ccccc21 [Example 16, (2-Chloro-4-pyrazol-1-yl-phenyl)(5H,11H-Pyrrolo[2,1-c][1,4]benzodiazepin-10-yl)-methanone]			400%	88%
Cc1ccn(-c2ncc(C(=O)N3Cc4cccn4Cc4ccccc43)c(C(F)(F)F)n2)n1 [Example 20, [2-(3-Methyl-pyrazol-1-yl)-4-trifluoromethyl-pyrimidin-5-yl]-(5H,11H-pyrrolo[2,1-c][1,4]benzodiazepin-10-yl)-methanone]	152% (1 mg/kg)	25% (1 mg/kg)		
Cc1cnn(-c2ncc(C(=O)N3Cc4cccn4Cc4ccccc43)c(C(F)(F)F)n2)c1 [Example 21, [2-(4-Methyl-pyrazol-1-yl)-4-trifluoromethyl-pyrimidin-5-yl]-(5H,11H-pyrrolo[2,1-c][1,4]benzodiazepin-10-yl)-methanone]			181%	49%
CC(=O)c1ccc(C(=O)N2Cc3cccn3Cc3ccccc32)cc1 [Example 22, 1-[4-(5H,11H-Pyrrolo[2,1-c][1,4]benzodiazepine-10-carbonyl)-phenyl]-ethanone]			322%	80%
O=C(c1ccc(-c2cc[nH]n2)cc1)N1Cc2cccn2Cc2ccccc21 [Example 24, [4-(1H-Pyrazol-3-yl)-phenyl]-(5H,11H-pyrrolo[2,1-c][1,4]benzodiazepin-10-yl)-methanone]			159%	47%
Cn1ccc(-c2ccc(C(=O)N3Cc4cccn4Cc4ccccc43)cc2)n1 [Example 25, [4-(1-Methyl-1H-pyrazolyl-3-yl)-phenyl]-(5H,11H-pyrrolo[2,1-c][1,4]-benzodiazepin-10-yl)-methanone]			979%	87%
CCn1ccc(-c2ccc(C(=O)N3Cc4cccn4Cc4ccccc43)cc2)n1 [Example 26, [4-(1-Ethyl-1H-pyrazol-3-yl)-phenyl]-(5H,11H-pyrrolo[2,1-c][1,4]-benzodiazepin-10-yl)-methanone]			279%	54%
CCCn1ccc(-c2ccc(C(=O)N3Cc4cccn4Cc4ccccc43)cc2)n1 [Example 27, [4-(1-Propyl-1H-pyrazol-3-yl)-phenyl]-(5H,11H-pyrrolo[2,1-c][1,4]-benzodiazepin-10-yl)-methanone]			183%	76%
CCCCn1ccc(-c2ccc(C(=O)N3Cc4cccn4Cc4ccccc43)cc2)n1 [Example 28, [4-(1-Butyl-1H-pyrazol-3-yl)-phenyl]-(5H,11H-pyrrolo[2,1-c][1,4]-benzodiazepin-10-yl)-methanone]			37%	75%
COCn1ccc(-c2ccc(C(=O)N3Cc4cccn4Cc4ccccc43)cc2)n1 [Example 29, [4-(1-methoxymethyl-1H-pyrazol-3-yl)-phenyl]-(5H,11H-pyrrolo[2,1-c][1,4]-benzodiazepin-10-yl)-methanone]			305%	66%
CCC(=O)n1ccc(-c2ccc(C(=O)N3Cc4cccn4Cc4ccccc43)cc2)n1 [Example 31, 1-{3-[4-(5H,11H-Pyrrolo[2,1-c][1,4]benzodiazepine-10-carbonyl)-phenyl]-pyrazol-1-yl}-propan-1-one]			298%	72%
O=C(c1ccc(-c2ccn(C(=O)C3CC3)n2)cc1)N1Cc2cccn2Cc2ccccc21 [Example 32, [4-(1-Cyclopropanecarbonyl-1H-pyrazol-3-yl)-phenyl]-(5H,11H-pyrrolo[2,1-c][1,4]benzodiazepin-10-yl)-methanone]			373%	77%
Cc1ccc(F)cc1C(=O)n1ccc(-c2ccc(C(=O)N3Cc4cccn4Cc4ccccc43)cc2)n1 [Example 35, {4-[1-(5-Fluoro-2-methyl-benzoyl)-1H-pyrazol-3-yl]-phenyl}-(5H,11H-pyrrolo[2,1-c][1,4]benzodiazepin-10-yl)-methanone]			308%	63%
O=C(c1ccc(-c2ccn(C(=O)Cc3ccc(Cl)cc3Cl)n2)cc1)N1Cc2cccn2Cc2ccccc21 [Example 39, 2-(2,4-Dichloro-phenyl)-1-{3-[4-(5H,11H-pyrrolo[2,1-c][1,4]benzodiazepine-10-carbonyl)-phenyl]-pyrazol-1-yl}-ethanone]			253%	69%
O=C(c1ccc(-c2ccn(C(=O)c3ccccc3-c3ccccc3)n2)cc1)N1Cc2cccn2Cc2ccccc21 [Example 40, {4-[1-(Biphenyl-2-carbonyl)-1H-pyrazol-3-yl]-phenyl}-(5H,11H-pyrrolo[2,1-c][1,4]benzodiazepin-10-yl)-methanone]			183%	46%
O=C(c1ccc(-c2ccn(C(=O)c3ccccc3-c3ccc(C(F)(F)F)cc3)n2)cc1)N1Cc2cccn2Cc2ccccc21 [Example 41, {4-[1-(4′-Trifluoromethyl-biphenyl-2-carbonyl)-1H-pyrazol-3-yl]-phenyl}-(5H,11H-pyrrolo[2,1-c][1,4]benzodiazepin-10-yl)-methanone]			240%	69%
